For three compounds, EC50 and solubility results are on record in US8741836B2, “Polypeptides” (Novo Nordisk A/S, priority 2011, dated 2014).

Where two headings read alike, the source gives them in different places. Starred links: 1 amine or outer side, 2 acyl side, 3 side chain; linkers in the order of their positions; H or OH if unused. Positions of bridges follow the written chain, without caps; N, C: chain ends. Residues, ends and D or L forms follow the SMILES beside them. Groups on a side chain read outwards from the residue. *: point of attachment. C20 diacid = O=C(O)CCCCCCCCCCCCCCCCCCC(=O)*; C18 diacid = O=C(O)CCCCCCCCCCCCCCCCC(=O)*; γGlu = O=C(O)[C@H](CCC(=O)[*:2])N[*:1]; AEEA = NCCOCCOCC(=O)O

The target in data set [1] is T1, human calcitonin receptor (Homo sapiens, UniProt P30988).
T1 construct: expressed in transfected cells; CRE-luciferase reporter
T1 sequence (P30988 25-474): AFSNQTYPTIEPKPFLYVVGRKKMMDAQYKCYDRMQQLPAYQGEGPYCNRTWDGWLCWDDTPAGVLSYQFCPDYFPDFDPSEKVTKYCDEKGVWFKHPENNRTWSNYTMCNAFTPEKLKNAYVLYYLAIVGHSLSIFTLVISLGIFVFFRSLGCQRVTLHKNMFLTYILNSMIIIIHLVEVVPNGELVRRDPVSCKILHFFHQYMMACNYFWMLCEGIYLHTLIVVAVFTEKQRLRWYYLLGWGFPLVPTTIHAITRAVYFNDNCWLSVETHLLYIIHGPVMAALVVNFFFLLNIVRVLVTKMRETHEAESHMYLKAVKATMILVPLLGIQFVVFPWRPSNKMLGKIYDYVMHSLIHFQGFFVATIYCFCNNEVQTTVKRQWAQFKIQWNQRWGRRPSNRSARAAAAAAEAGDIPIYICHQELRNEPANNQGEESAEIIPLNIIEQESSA
In words: Assay (II)a functional assay, human calcitonin receptor (CRE luciferase reporter in BHK cells). The data set is classed as cell-based. An excerpt: (§1) 1. Luciferase Assay Outline
(§2) Activation of calcitonin and amylin (coexpression of calcitonin receptor and receptor activity modifying proteins (RAMP)) receptors lead to increased intracellular concentrations of cAMP. Consequently, transcription is activated by promoters containing multiple copies of the cAMP response element (CRE). It is thus possible to measure amylin activity by the use of a CRE luciferase reporter gene introduced into BHK cells also expressing calcitonin or amylin receptors.
(§3) A BHK570 cell line was stably transfected with the human calcitonin receptor and a CRE-responsive luciferase reporter gene. The cell line was further transfected with RAMP-3, using standard methods. This turns the calcitonin receptor into an amylin 3(a) receptor. Methotrexate, Neomycin, and Hygromycin are selection markers for luciferase, the calcitonin receptor, and RAMP-3, respectively.
(§4) To perform activity assays, BHK calcitonin (a) receptor- or amylin 3(a)-receptor/CRE-luc cells were seeded in white 96 well culture plates at a density of about 20.000 cells/well. […] After incubation overnight at 37° C. and 5% CO2, the growth medium was replaced by 50 μl/well assay medium (DMEM (without phenol red), Glutamax™, 10% FBS, and 10 mM Hepes, pH 7.4). Further, 50 μl/well of standard or sample in assay buffer were added. After 3 hours incubation at 37° C. and 5% CO2, the assay medium with standard or sample were removed and replaced by 100 μl/well PBS. Further, 100 μl/well LucLite™ was added. The plates were sealed and incubated at room temperature for 30 minutes. Finally, luminescence was measured on a TopCounter (Packard) in SPC (single photon counting) mode.
Background: Reporter assays use an easily measured gene product as a stand-in for the process of interest.

For data set [2], the target named is T2, human amylin 3(a) receptor (human calcitonin receptor + RAMP-3) (Homo sapiens, UniProt O60896+P30988).
T2 construct: expressed in transfected cells; CRE-luciferase reporter
T2 sequence (P30988 25-474): T1 sequence (P30988 25-474)
T2 sequence (O60896 24-148 partner): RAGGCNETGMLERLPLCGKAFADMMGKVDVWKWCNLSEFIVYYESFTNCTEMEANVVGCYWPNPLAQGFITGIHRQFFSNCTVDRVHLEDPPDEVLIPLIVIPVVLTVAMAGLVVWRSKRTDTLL
In words: Assay (II)a functional assay, human amylin receptor (CRE luciferase reporter in BHK cells). The data set is classed as cell-based.
From the text: as §1, §2, §3, §4

Data set [3] is described as follows: Assay (IV) determination of solubility. The data set is classed as physicochemical. On the procedure:
Assay (IV)—Determination of Solubility
The polypeptide was dissolved in water at −500 nmol/ml and mixed 1:1 with a series of buffers (100 mM glycylglycine pH 3.0, 100 mM glycylglycine pH 4.0, 100 mM glycylglycine pH 5.0, 100 mM bistrispropane pH 6.0, 100 mM bistrispropane pH 6.5, 100 mM bistrispropane pH 7.0, 100 mM bistrispropane pH 7.5, 100 mM bistrispropane pH 8.0). After 18 hours at room temperature the samples were centrifuged and the polypeptide concentration determined by HPLC.

[4] abbreviates: Table 11, human calcitonin receptor, read-out: CTa receptor human EC50.
Setting [5] is: Table 11, human amylin receptor.
[6] abbreviates: Table 7, human calcitonin (CTa) receptor.

On to `CC[C@H](C)[C@H](NC(=O)[C@H](CCCCNC(=O)COCCOCCNC(=O)COCCOCCNC(=O)CC[C@H](NC(=O)CCCCCCCCCCCCCCCCC(=O)O)C(=O)O)NC(=O)CNC(=O)[C@H](Cc1ccccc1)NC(=O)[C@H](CC(N)=O)NC(=O)[C@H](CC(N)=O)NC(=O)[C@H](CO)NC(=O)[C@H](CO)NC(=O)[C@H](Cc1c[nH]cn1)NC(=O)[C@@H](NC(=O)[C@H](CC(C)C)NC(=O)[C@H](Cc1ccccc1)NC(=O)[C@H](CCC(=O)O)NC(=O)[C@H](C)NC(=O)[C@H](CC(C)C)NC(=O)[C@H](CCCNC(=N)N)NC(=O)[C@H](CCC(N)=O)NC(=O)[C@@H](NC(=O)[C@H](C)NC(=O)[C@@H]1CSSC[C@H](NC(=O)[C@@H](N)CCCCN)C(=O)N[C@@H](CC(N)=O)C(=O)N[C@@H]([C@@H](C)O)C(=O)N[C@@H](C)C(=O)N[C@@H]([C@@H](C)O)C(=O)N1)[C@@H](C)O)C(C)C)C(=O)N[C@@H](CC(C)C)C(=O)N1CCC[C@H]1C(=O)N1CCC[C@H]1C(=O)N[C@H](C(=O)N[C@@H](CC(N)=O)C(=O)N[C@H](C(=O)NCC(=O)N[C@@H](CO)C(=O)N[C@@H](CC(N)=O)C(=O)N[C@H](C(=O)N[C@@H](Cc1ccc(O)cc1)C(N)=O)[C@@H](C)O)C(C)C)[C@@H](C)O` [Example 126] (H-KCNTATCATQRLAEFLVHSSNNFGK([AEEA-AEEA-γGlu-C18 diacid])ILPPTNVGSNTY-NH2; disulfide 2-7 (inferred); N-terminus and C-terminus assumed), for which the results for the EC50 in data set [1] (setting [4]) and in data set [2] (setting [5]) were 0.101 nM and 0.076 nM, respectively.
`CC(C)C[C@H](NC(=O)[C@H](CCCNC(=N)N)NC(=O)[C@H](CCC(N)=O)NC(=O)[C@@H](NC(=O)[C@H](C)NC(=O)[C@@H]1CSSC[C@H](NC(=O)[C@@H](N)CCCCNC(=O)CC[C@H](NC(=O)CCCCCCCCCCCCCCCCCCC(=O)O)C(=O)O)C(=O)N[C@@H](CC(N)=O)C(=O)N[C@@H]([C@@H](C)O)C(=O)N[C@@H](C)C(=O)N[C@@H]([C@@H](C)O)C(=O)N1)[C@@H](C)O)C(=O)N[C@@H](C)C(=O)N[C@@H](CCC(=O)O)C(=O)N[C@@H](Cc1ccccc1)C(=O)N[C@@H](CC(C)C)C(=O)N[C@@H](Cc1c[nH]cn1)C(=O)N[C@@H](Cc1c[nH]cn1)C(=O)N[C@@H](CO)C(=O)N[C@@H](CO)C(=O)N[C@@H](CCC(N)=O)C(=O)N[C@@H](CC(N)=O)C(=O)N[C@@H](Cc1ccccc1)C(=O)NCC(=O)N[C@@H](C)C(=O)N1CCC[C@H]1C(=O)N[C@@H](CC(C)C)C(=O)N[C@@H](CO)C(=O)N[C@@H](CO)C(=O)N[C@H](C(=O)N[C@@H](CC(N)=O)C(=O)N[C@H](C(=O)NCC(=O)N[C@@H](CO)C(=O)N[C@@H](CC(N)=O)C(=O)N[C@H](C(=O)N1CCC[C@H]1C(N)=O)[C@@H](C)O)C(C)C)[C@@H](C)O` [Example 151, N-epsilon1-[(S)-4-Carboxy-4-(19-carboxynonadecanoylamino)butyryl]-[Glu14,His17,Gln21,Ala25,Pro26,Ser28,Ser29,Pro37]-pramlintide] (H-K([γGlu-C20 diacid])CNTATCATQRLAEFLHHSSQNFGAPLSSTNVGSNTP-NH2; disulfide 2-7 (inferred); N-terminus assumed): the EC50 in data set [1] (setting [6]) is 0.0675 nM; in data set [1] (setting [4]), 0.0675 nM; in data set [2] it was 0.209 nM; in data set [2] (Table 4), 0.209 nM; in data set [2] (Table 6, human amylin receptor), 0.209 nM; in data set [2] (Table 7, human amylin receptor) it was 0.209 nM. Besides, the concentration for a half-maximal effect (EC50) in data set [2] (setting [5]) was found to be 0.209 nM. Moreover, the solubility at 18 h was greater than 200 µM in data set [3] (bistrispropane buffer, pH 6.5, read-out: Solubility); greater than 200 µM in data set [3] (bistrispropane buffer, pH 7.5, read-out: Solubility); greater than 200 µM in data set [3] (bistrispropane buffer, pH 6.0, read-out: Solubility); greater than 200 µM in data set [3] (bistrispropane buffer, pH 7.0, read-out: Solubility pH 7.0); greater than 200 µM in data set [3] (bistrispropane buffer, pH 8.0, read-out: Solubility); greater than 200 µM in data set [3] (glycylglycine buffer, pH 3.0, read-out: Solubility). Besides, the solubility at 18 h in data set [3] (glycylglycine buffer, pH 4.0, read-out: Solubility pH 4.0) was greater than 200 µM; in data set [3] (glycylglycine buffer, pH 5.0, read-out: Solubility), greater than 200 µM; in data set [3] (pH 4.0, read-out: Solubility), greater than 200 µM; in data set [3] (pH 7.0, read-out: Solubility), greater than 200 µM.
`CC[C@H](C)[C@H](NC(=O)[C@@H]1CCCN1C(=O)CNC(=O)[C@H](CC(C)C)NC(=O)[C@H](CCC(=O)O)NC(=O)[C@H](CCC(N)=O)NC(=O)[C@@H](NC(=O)[C@H](C)NC(=O)[C@H](CCCNC(=N)N)NC(=O)[C@H](Cc1c[nH]cn1)NC(=O)[C@H](CC(C)C)NC(=O)[C@H](Cc1ccccc1)NC(=O)[C@H](CCC(=O)O)NC(=O)[C@H](C)NC(=O)[C@H](CC(C)C)NC(=O)[C@H](CCCNC(=N)N)NC(=O)[C@H](CCC(N)=O)NC(=O)[C@@H](NC(=O)[C@H](C)NC(=O)[C@@H]1CSSC[C@H](NC(=O)[C@H](Cc2c[nH]cn2)NC(=O)COCCOCCNC(=O)COCCOCCNC(=O)CC[C@H](NC(=O)CCCCCCCCCCCCCCCCCCC(=O)O)C(=O)O)C(=O)N[C@@H](CC(N)=O)C(=O)N[C@@H]([C@@H](C)O)C(=O)N[C@@H](C)C(=O)N[C@@H]([C@@H](C)O)C(=O)N1)[C@@H](C)O)[C@@H](C)O)C(=O)N[C@@H](CC(C)C)C(=O)N1CCC[C@H]1C(=O)N1CCC[C@H]1C(=O)N[C@H](C(=O)N[C@@H](CC(N)=O)C(=O)N[C@H](C(=O)NCC(=O)N[C@@H](CO)C(=O)N[C@@H](CC(N)=O)C(=O)N[C@H](C(=O)N[C@@H](Cc1ccc(O)cc1)C(N)=O)[C@@H](C)O)C(C)C)[C@@H](C)O` [Example 23] ({C20 diacid-γGlu-AEEA-AEEA}-HCNTATCATQRLAEFLHRATQELGPILPPTNVGSNTY-NH2; disulfide 2-7): the EC50 in data set [1] (setting [6]) is 0.492 nM; in data set [2] (Table 6, human amylin receptor) it was 0.385 nM.

Broadly, the EC50 is the concentration that produces a half-maximal response. What is called solubility is how much of the substance goes into solution per volume.
